Results on 44 compounds are retold here after patent US20260035387A1 (BIOGEN MA INC., priority 2022, published 2026).

This experiment relates to mutant Huntington (HTT) protein. Description: HTT Mutant HTRF iPSC assay (mHTT protein lowering). The experiment is classed as cell-based. Particulars: human iPSC derived from a HTT patient with a poly-Q49 mutation. A general note: Time-resolved FRET reads energy transfer from a long-lived donor to a nearby acceptor.
A word on the IC50: it is the concentration at which inhibition is half-maximal. Take `COc1c(NC(=O)c2nc3ccc(N4CCC(N5CCC5)C4)nc3s2)cn2cc(C)nc2c1F` (racemic) [Compound 126, 5-(3-(azetidin-1-yl)pyrrolidin-1-yl)-N-(8-fluoro-7-methoxy-2-methylimidazo[1,2-a]pyridin-6-yl)thiazolo[5,4-b]pyridine-2-carboxamide]: the 50% inhibitory concentration (IC50) was under 100 nM. In the case of `Cc1cn2cc(NC(=O)c3cc4ncc(C5CCC(N)CC5)nc4s3)cc(F)c2n1` (racemic) [Compound 141, 3-(4-aminocyclohexyl)-N-(8-fluoro-2-methylimidazo[1,2-a]pyridin-6-yl)thieno[2,3-b]pyrazine-6-carboxamide] it was 1000 to 9000 nM; in that of `Cc1cn2cc(NC(=O)c3cc4ncc(C5=CCCC(N)C5)nc4s3)cc(F)c2n1` (racemic) [Compound 143, 3-(5-aminocyclohex-1-en-1-yl)-N-(8-fluoro-2-methylimidazo[1,2-a]pyridin-6-yl)thieno[2,3-b]pyrazine-6-carboxamide], 100 to 1000 nM. In the case of `Cc1cn2cc(NC(=O)c3cc4ncc(C5=CC(N)CCC5)nc4s3)cc(F)c2n1` (racemic) [Compound 145, 3-(3-aminocyclohex-1-en-1-yl)-N-(8-fluoro-2-methylimidazo[1,2-a]pyridin-6-yl)thieno[2,3-b]pyrazine-6-carboxamide] it was 100 to 1000 nM; in that of `Cc1cn2cc(NC(=O)c3cc4ccc(OC5C[C@@H](C)N[C@@H](C)C5)nc4s3)cc(F)c2n1` (mixture of isomers) [Compound 156], under 100 nM; in that of `Cc1cn2cc(NC(=O)c3cc4ccc(OC5CCNC(C)(C)C5)nc4s3)cc(F)c2n1` (racemic) [Compound 158, 6-((2,2-dimethylpiperidin-4-yl)oxy)-N-(8-fluoro-2-methylimidazo[1,2-a]pyridin-6-yl)thieno[2,3-b]pyridine-2-carboxamide], under 100 nM. The figure for `Cc1cn2cc(NC(=O)c3cc4ccc(OC5CCN(C)C5)nc4s3)cc(F)c2n1` (racemic) [Compound 159, N-(8-fluoro-2-methylimidazo[1,2-a]pyridin-6-yl)-6-((1-methylpyrrolidin-3-yl)oxy)thieno[2,3-b]pyridine-2-carboxamide] is under 100 nM. `CCN1CCC(Oc2ccc3cc(C(=O)Nc4cc(F)c5nc(C)cn5c4)sc3n2)C1` (racemic) [Compound 161, 6-((1-ethylpyrrolidin-3-yl)oxy)-N-(8-fluoro-2-methylimidazo[1,2-a]pyridin-6-yl)thieno[2,3-b]pyridine-2-carboxamide] yielded a concentration for half-maximal inhibition (IC50) of under 100 nM. Take `COc1c(NC(=O)c2cc3ccc(N4CCC(N5CCC5)C4)nc3s2)cc2cn(C)nc2c1F` (racemic) [Compound 180, rac-(R)-6-(3-(azetidin-1-yl)pyrrolidin-1-yl)-N-(7-fluoro-6-methoxy-2-methyl-2H-indazol-5-yl)thieno[2,3-b]pyridine-2-carboxamide]: the IC50 is under 100 nM.

Regarding `Cc1cn2cc(NC(=O)c3cc4ccc(N5CC[C@@H]6CN(C)C[C@@H]65)nc4s3)nc(C)c2n1` (racemic) [Compound 194, N-(2,8-dimethylimidazo[1,2-a]pyrazin-6-yl)-6-((3aR,6aR)-5-methylhexahydropyrrolo[3,4-b]pyrrol-1(2H)-yl)thieno[2,3-b]pyridine-2-carboxamide], the IC50 is under 100 nM.

`Cc1cn2cc(NC(=O)c3cc4ccc(N5CCC6CNCC65)nc4s3)nc(C)c2n1` (racemic) [Compound 215, N-(2,8-dimethylimidazo[1,2-a]pyrazin-6-yl)-6-(hexahydropyrrolo[3,4-b]pyrrol-1(2H)-yl)thieno[2,3-b]pyridine-2-carboxamide] displayed an IC50 of under 100 nM.

`COc1c(NC(=O)c2cc3ccc(N4CCC5(CCCN5C)C4)nc3s2)cc2cn(C)nc2c1F` (racemic) [Compound 231, N-(7-fluoro-6-methoxy-2-methyl-2H-indazol-5-yl)-6-(1-methyl-1,7-diazaspiro[4.4]nonan-7-yl)thieno[2,3-b]pyridine-2-carboxamide] yielded an IC50 of under 100 nM.

On to `COc1cc2nn(C)cc2cc1NC(=O)c1cc2ccc(N[C@@H]3CC(C)(C)NC(C)(C)[C@@H]3F)nc2s1` (racemic) [Compound 260, 6-(((3R,4R)-3-fluoro-2,2,6,6-tetramethylpiperidin-4-yl)amino)-N-(6-methoxy-2-methyl-2H-indazol-5-yl)thieno[2,3-b]pyridine-2-carboxamide], for which the IC50 was under 100 nM.

`COc1cc2nn(C)cc2cc1NC(=O)c1cc2ccc(N[C@H]3CC(C)(C)NC(C)(C)[C@@H]3F)nc2s1` (racemic) [Compound 261, 6-(((3R,4S)-3-fluoro-2,2,6,6-tetramethylpiperidin-4-yl)amino)-N-(6-methoxy-2-methyl-2H-indazol-5-yl)thieno[2,3-b]pyridine-2-carboxamide] had an IC50 of under 100 nM.

For the compound `Cc1cn2cc(NC(=O)c3cc4ccc([C@H]5CCCNC5)nc4s3)cc(F)c2n1` (single isomer, unassigned) [Compound 81], the IC50 was under 100 nM. The figure for `Cc1cn2cc(NC(=O)c3cc4ccc([C@@H]5CCCNC5)nc4s3)cc(F)c2n1` (single isomer, unassigned) [Compound 82] is under 100 nM; for `Cc1cn2cc(NC(=O)c3nc4ccc(N5CCC6(CCN6)C5)nc4s3)cc(F)c2n1` (single isomer, unassigned) [Compound 97] it is under 100 nM; for `Cc1cn2cc(NC(=O)c3nc4ccc(N5CCC(N6CCC6)C5)nc4s3)cc(F)c2n1` (single isomer, unassigned) [Compound 101] it is under 100 nM. The figure for `Cc1cn2cc(NC(=O)c3nc4ccc(N5CCC6(CCN6)C5)nc4s3)cc(F)c2n1` (single isomer, unassigned) [Compound 111] is under 100 nM; for `COc1c(NC(=O)c2nc3ccc(N4CCC5(CCCN5C)C4)nc3s2)cc2cn(C)nc2c1F` (single isomer, unassigned) [Compound 124] it is under 100 nM.

`COc1c(NC(=O)c2nc3ccc(N4CCC5(CCCN5C)C4)nc3s2)cn2cc(C)nc2c1F` (single isomer, unassigned) [Compound 127]: the IC50 was under 100 nM.

In the case of `COc1c(NC(=O)c2nc3ccc(N4CCC5(CCCN5C)C4)nc3s2)cn2cc(C)nc2c1F` (single isomer, unassigned) [Compound 128], the IC50 was under 100 nM. For `COc1cc(NC(=O)c2cc3nc(N4CCC5(CCCN5C)C4)ccc3o2)cn2cc(C)nc12` (single isomer, unassigned) [Compound 174], the IC50 was under 100 nM. For the compound `COc1cn2nc(C)cc2cc1NC(=O)c1cc2nc(N3CCC4(CCCN4C)C3)ccc2o1` (single isomer, unassigned) [Compound 175], the IC50 was under 100 nM.

`COc1cc2nn(C)cc2cc1NC(=O)c1cc2ccc(C3CCN(C)C3)nc2s1` (single isomer, unassigned) [Compound 177]: the IC50 was under 100 nM. The figure for `Cc1cn2cc(NC(=O)c3cc4ccc(C5CCN(C)C5)nc4s3)cc(F)c2n1` (single isomer, unassigned) [Compound 181] is under 100 nM. The figure for `COc1cc2nn(C)cc2cc1NC(=O)c1cc2ccc(C3CCCN(C)C3)nc2s1` (single isomer, unassigned) [Compound 185] is under 100 nM; for `COc1cc2nn(C)cc2cc1NC(=O)c1cc2ccc(C3CCCN(C)C3)nc2s1` (single isomer, unassigned) [Compound 186] it is under 100 nM; for `Cc1cn2cc(NC(=O)c3cc4ccc(C5CCCN(C)C5)nc4s3)nc(C)c2n1` (single isomer, unassigned) [Compound 187] it is 100 to 1000 nM. In the case of `COc1nc(NC(=O)c2cc3ccc(N4CCC(N(C)C)C4)nc3s2)cn2cc(C)nc12` (single isomer, unassigned) [Compound 198] it was under 100 nM; in that of `COc1nc(NC(=O)c2cc3ccc(N4CCC(N(C)C)C4)nc3s2)cn2cc(C)nc12` (single isomer, unassigned) [Compound 199], under 100 nM; in that of `COc1cn2nc(C)cc2cc1NC(=O)c1cc2ccc(N3CCC(N(C)C)C3)nc2s1` (single isomer, unassigned) [Compound 205], under 100 nM. Compound `COc1cn2nc(C)cc2cc1NC(=O)c1cc2ccc(N3CCC(N(C)C)C3)nc2s1` (single isomer, unassigned) [Compound 206] came in with an IC50 of under 100 nM. The figure for `Cc1cn2cc(NC(=O)c3cc4ccc(N5CCC(NCC6CC6)C5)nc4s3)cc(F)c2n1` (single isomer, unassigned) [Compound 210] is under 100 nM; for `CCNC1CCN(c2ccc3cc(C(=O)Nc4cc5cc(C)nn5cc4OC)sc3n2)C1` (single isomer, unassigned) [Compound 212] it is under 100 nM; for `CCNC1CCN(c2ccc3cc(C(=O)Nc4cc5cc(C)nn5cc4OC)sc3n2)C1` (single isomer, unassigned) [Compound 213] it is under 100 nM. The figure for `COc1cc2nn(C)cc2cc1NC(=O)c1cc2ccc(N3CC[C@]4(CCCN4C)C3)nc2s1` (single isomer, unassigned) [Compound 222] is under 100 nM; for `COc1cc2nn(C)cc2cc1NC(=O)c1cc2ccc(N3CC[C@@]4(CCCN4C)C3)nc2s1` (single isomer, unassigned) [Compound 223] it is under 100 nM; for `COc1cn2nc(C)cc2cc1NC(=O)c1cc2ccc(N3CCC4(CCCN4C)C3)nc2s1` (single isomer, unassigned) [Compound 224] it is under 100 nM. The figure for `COc1cn2nc(C)cc2cc1NC(=O)c1cc2ccc(N3CCC4(CCCN4C)C3)nc2s1` (single isomer, unassigned) [Compound 225] is under 100 nM; for `COc1c(NC(=O)c2cc3ccc(N4CCC5(CCCN5C)C4)nc3s2)cn2cc(C)nc2c1F` (single isomer, unassigned) [Compound 239] it is under 100 nM. Turning to `COc1cc2nn(C)cc2cc1NC(=O)c1cc2ccc(N3CC[C@@H](N(C)C)C3)nc2s1` (single isomer, unassigned) [Compound 241], the IC50 was under 100 nM. The figure for `COc1c(NC(=O)c2cc3ccc(N4CCC5(CCCN5C)C4)nc3s2)cn2cc(C)nc2c1F` (single isomer, unassigned) [Compound 242] is under 100 nM; for `COc1cc2nn(C)cc2cc1NC(=O)c1cc2ccc(N3CCC(N(C)C)C3)nc2s1` (single isomer, unassigned) [Compound 244] it is under 100 nM.
